Measurements from article PMC4772870 (2015).

System: d(ATGCAT)2 (DNA, duplex) ATGCAT
Assay: melting temperature
Conditions: derived from two Tm (~30 free, ~45 complex); reviewed from authors' ref 23

## Cc1cccc2nc3cccc(C(=O)NCCNCCNCCNC(=O)c4cccc5nc6cccc(C)c6nc45)c3nc12
  dTm: ~ 15 °C
